Patent US10670605B2, “Cysteine reactive probes and uses thereof” (The Scripps Research Institute, priority 2015, dated 2020)

Assays:
RRAGC C377 (Q9HB90) = RRAGC C377 (Q9HB90) (Homo sapiens, UniProt Q9HB90); assay: Competitive isoTOP-ABPP, cell lysates; format: binding; conditions: for isoTOP-ABPP reactivity profile ratio, Q9HB90_C377 / isoTOP-ABPP reactivity ratio, Q9HB90_C377: 500 μm; for isoTOP-ABPP ratio, Q9HB90_C377: invitro
LRBA C2675 (P50851) = LRBA C2675 (P50851) (Homo sapiens, UniProt P50851); assay: Competitive isoTOP-ABPP, cell lysates; format: binding
Sequence of LRBA C2675 (P50851) (P50851 whole entry): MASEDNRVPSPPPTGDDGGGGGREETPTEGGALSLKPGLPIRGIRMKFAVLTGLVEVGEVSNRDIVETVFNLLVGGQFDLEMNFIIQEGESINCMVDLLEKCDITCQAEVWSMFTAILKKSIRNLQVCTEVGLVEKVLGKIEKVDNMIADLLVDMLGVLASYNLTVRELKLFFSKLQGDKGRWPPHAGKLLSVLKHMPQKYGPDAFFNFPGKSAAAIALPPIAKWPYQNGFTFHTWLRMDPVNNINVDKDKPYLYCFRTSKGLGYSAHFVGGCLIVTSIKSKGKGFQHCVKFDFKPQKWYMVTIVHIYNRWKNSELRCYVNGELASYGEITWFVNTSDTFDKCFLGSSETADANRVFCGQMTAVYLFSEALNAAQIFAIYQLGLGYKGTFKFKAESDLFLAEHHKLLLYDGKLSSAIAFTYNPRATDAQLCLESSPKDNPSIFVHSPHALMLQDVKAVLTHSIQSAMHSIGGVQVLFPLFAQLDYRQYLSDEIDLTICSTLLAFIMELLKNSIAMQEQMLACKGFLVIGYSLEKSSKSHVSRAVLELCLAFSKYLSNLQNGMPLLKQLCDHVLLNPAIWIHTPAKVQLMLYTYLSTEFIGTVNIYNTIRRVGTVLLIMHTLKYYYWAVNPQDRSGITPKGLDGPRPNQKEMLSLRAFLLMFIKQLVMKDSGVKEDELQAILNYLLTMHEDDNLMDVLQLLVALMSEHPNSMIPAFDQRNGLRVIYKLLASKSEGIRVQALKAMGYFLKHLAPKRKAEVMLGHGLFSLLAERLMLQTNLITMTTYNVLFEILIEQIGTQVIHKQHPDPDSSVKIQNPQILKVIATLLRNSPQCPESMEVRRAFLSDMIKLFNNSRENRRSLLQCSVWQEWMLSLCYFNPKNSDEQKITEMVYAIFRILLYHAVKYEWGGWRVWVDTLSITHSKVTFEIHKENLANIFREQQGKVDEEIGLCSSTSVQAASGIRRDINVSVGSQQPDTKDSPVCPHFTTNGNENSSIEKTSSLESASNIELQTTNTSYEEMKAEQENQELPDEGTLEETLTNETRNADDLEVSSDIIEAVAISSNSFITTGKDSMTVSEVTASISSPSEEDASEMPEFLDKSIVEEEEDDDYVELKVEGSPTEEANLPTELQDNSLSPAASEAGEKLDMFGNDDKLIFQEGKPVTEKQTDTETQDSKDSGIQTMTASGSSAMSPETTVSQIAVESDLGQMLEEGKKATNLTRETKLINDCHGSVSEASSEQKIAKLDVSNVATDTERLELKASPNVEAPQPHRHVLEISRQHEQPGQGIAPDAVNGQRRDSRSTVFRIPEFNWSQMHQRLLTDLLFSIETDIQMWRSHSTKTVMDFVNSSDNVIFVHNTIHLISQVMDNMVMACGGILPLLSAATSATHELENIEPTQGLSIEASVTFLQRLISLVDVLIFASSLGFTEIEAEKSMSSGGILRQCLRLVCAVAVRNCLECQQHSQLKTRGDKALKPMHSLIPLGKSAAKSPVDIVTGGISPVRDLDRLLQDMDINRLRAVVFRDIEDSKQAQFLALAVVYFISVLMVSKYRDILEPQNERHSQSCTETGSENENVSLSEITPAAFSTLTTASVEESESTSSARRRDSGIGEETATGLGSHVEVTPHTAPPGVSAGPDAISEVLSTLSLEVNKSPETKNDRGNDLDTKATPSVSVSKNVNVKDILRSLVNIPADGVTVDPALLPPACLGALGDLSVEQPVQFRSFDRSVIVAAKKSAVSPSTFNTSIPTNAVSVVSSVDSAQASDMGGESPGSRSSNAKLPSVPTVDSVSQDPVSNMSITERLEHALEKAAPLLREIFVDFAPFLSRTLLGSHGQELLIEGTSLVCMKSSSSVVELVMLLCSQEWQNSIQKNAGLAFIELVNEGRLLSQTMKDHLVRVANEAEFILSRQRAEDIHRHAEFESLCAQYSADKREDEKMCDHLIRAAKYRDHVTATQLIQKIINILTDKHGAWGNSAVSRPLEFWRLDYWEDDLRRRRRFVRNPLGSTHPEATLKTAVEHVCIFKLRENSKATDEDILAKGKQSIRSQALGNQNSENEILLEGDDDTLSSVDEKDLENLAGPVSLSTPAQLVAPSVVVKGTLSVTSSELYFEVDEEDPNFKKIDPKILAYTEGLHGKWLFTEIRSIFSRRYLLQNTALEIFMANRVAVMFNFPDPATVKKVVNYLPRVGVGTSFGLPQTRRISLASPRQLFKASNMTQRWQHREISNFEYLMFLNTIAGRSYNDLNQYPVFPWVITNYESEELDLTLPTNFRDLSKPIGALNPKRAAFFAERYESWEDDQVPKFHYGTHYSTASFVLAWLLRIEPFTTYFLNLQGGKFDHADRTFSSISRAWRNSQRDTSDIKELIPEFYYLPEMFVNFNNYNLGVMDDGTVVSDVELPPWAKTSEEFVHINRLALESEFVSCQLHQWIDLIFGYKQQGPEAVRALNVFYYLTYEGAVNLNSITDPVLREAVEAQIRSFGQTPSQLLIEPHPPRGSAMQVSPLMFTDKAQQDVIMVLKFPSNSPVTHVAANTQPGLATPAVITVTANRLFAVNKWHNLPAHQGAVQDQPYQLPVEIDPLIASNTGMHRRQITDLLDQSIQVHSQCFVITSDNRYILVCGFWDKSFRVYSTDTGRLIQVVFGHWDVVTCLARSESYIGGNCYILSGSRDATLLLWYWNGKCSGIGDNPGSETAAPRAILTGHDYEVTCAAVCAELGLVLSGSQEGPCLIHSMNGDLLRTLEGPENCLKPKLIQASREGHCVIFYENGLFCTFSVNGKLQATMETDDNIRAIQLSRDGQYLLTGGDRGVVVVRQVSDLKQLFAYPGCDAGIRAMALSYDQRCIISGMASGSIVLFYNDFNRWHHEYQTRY

MLTK C22 (Q9NYL2) = MLTK C22 (Q9NYL2) (Homo sapiens, UniProt Q9NYL2); assay: Competitive isoTOP-ABPP, cell lysates; format: binding
Sequence of MLTK C22 (Q9NYL2) (Q9NYL2 whole entry, the tested form may be a part): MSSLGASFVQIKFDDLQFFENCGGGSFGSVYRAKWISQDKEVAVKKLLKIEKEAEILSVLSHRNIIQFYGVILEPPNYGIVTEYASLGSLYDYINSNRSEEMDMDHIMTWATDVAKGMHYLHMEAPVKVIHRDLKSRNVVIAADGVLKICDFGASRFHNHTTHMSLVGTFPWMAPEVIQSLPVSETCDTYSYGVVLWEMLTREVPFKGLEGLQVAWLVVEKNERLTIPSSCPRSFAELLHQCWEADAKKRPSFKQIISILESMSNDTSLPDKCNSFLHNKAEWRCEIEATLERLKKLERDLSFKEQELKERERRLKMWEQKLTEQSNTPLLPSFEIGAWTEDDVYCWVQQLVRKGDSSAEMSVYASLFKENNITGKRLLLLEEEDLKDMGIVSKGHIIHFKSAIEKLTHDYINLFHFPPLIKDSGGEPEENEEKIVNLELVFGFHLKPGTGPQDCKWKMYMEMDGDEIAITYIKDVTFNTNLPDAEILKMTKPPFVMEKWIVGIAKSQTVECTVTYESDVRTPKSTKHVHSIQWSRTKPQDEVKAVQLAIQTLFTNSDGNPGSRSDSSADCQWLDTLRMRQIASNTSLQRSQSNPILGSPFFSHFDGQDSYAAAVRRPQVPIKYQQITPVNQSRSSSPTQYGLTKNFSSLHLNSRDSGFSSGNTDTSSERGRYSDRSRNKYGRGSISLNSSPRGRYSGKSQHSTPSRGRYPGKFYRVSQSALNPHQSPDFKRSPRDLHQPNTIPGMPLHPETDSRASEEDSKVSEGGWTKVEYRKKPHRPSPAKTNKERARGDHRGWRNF

[1] = molecular target: T1, cysteines in MDA-MB-231 and Ramos cells (Homo sapiens, UniProt Q9BVC5); assay: Competitive isoTOP-ABPP in situ (fragment-treated cells); format: cell-based
T1 sequence (Q9BVC5 1-232): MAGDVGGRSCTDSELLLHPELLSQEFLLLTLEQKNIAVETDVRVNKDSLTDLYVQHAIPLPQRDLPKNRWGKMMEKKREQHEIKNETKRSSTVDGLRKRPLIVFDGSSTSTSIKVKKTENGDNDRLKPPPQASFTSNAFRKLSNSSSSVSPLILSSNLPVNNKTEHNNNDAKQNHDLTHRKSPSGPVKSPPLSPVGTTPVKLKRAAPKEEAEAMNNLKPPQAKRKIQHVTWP

[2] = molecular target: T2, cysteines in MDA-MB-231 and Ramos cells (Homo sapiens, UniProt P49588); assay: as above; format: cell-based
T2 sequence (P49588 1-968): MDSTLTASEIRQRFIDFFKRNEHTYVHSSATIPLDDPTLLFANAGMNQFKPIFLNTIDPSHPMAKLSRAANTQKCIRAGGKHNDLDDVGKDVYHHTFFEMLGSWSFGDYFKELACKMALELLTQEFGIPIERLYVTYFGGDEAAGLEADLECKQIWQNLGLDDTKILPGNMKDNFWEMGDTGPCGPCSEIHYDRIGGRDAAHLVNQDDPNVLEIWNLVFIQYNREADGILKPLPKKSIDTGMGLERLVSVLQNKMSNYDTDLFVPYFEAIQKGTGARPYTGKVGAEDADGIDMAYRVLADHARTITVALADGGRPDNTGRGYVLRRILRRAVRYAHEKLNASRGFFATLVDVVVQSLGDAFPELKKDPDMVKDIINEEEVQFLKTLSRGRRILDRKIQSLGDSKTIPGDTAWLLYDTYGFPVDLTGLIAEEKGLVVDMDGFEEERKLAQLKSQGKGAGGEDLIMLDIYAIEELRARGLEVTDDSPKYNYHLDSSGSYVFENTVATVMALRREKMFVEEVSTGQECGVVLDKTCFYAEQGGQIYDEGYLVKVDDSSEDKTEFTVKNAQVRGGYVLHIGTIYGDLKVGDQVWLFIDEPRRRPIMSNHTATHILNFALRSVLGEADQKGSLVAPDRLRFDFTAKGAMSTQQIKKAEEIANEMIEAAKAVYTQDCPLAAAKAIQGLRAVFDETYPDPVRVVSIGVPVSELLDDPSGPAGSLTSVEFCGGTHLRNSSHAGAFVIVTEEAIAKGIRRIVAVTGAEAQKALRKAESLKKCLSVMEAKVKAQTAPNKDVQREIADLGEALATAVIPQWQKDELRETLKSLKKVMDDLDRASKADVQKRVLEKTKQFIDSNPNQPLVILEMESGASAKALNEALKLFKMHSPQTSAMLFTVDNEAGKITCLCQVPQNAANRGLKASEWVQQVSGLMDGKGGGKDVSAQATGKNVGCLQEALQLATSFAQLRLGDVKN

Sequence of RRAGC C377 (Q9HB90) (Q9HB90 2-399 limits assumed): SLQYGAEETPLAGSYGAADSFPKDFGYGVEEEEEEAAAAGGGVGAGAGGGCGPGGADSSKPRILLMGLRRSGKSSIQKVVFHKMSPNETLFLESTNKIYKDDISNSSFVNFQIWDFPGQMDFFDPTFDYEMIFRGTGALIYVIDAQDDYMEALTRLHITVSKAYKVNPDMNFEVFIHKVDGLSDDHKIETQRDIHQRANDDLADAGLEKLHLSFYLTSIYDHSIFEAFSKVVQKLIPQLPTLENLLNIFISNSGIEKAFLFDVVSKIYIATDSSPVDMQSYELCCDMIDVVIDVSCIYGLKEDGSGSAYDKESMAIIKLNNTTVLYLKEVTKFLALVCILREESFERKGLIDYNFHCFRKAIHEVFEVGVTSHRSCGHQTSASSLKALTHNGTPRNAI
Sequence of RRAGC C377 (Q9HB90) (Q7L523 whole entry partner): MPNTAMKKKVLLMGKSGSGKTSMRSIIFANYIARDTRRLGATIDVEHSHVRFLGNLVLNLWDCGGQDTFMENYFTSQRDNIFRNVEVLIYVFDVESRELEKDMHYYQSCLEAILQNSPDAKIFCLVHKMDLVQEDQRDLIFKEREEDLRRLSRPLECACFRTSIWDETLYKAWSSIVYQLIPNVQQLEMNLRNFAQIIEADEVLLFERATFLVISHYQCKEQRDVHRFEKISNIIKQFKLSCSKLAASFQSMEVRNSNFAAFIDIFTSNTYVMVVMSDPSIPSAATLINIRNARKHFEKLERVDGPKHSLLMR

In the case of `COc1ccc2c(c1)CCCN2C(=O)CCl` [compound 2], the “R value (DMSO/fragment)” value (RRAGC C377 (Q9HB90); 500 μM, in vitro, MDA-MB-231) is reported as 20.0, the “R value (DMSO/fragment)” value (LRBA C2675 (P50851); 500 μM, invitro, ramos) is reported as 3.0 and the “R value (DMSO/fragment)” value (MLTK C22 (Q9NYL2); 500 μM, in vitro, MDA-MB-231) is reported as 20.0. The “isoTOP-ABPP reactivity Q9BVC5_C10 C2orf49” value ([1]; 200 μM, insitu, 231) was 2.7.
With `N#C/C(=C\c1cc(C(F)(F)F)cc(C(F)(F)F)c1)C(N)=O` [compound 23] the “isoTOP-ABPP ratio (reactivity profile), Q9HB90_C377” value (RRAGC C377 (Q9HB90); 500 μm in-vitro ramos_231) was 1.5, the “isoTOP-ABPP ratio (reactivity profile), P50851_C2675” value (LRBA C2675 (P50851); 500 μm in-vitro ramos) was 2.6 and the “isoTOP-ABPP ratio (reactivity profile), Q9NYL2_C22” value (MLTK C22 (Q9NYL2); 500 μm in-vitro ramos_231) was 1.4.
In the case of `C=CC(=O)N1CCC(Cc2ccccc2)CC1` [compound 53], the “isoTOP-ABPP reactivity profile ratio, Q9HB90_C377” value (RRAGC C377 (Q9HB90); in-vitro_ramos) is reported as 1.1.
For `C=CC(=O)Nc1cc(F)c(N2CCN(C(=O)OC(C)(C)C)CC2)c(F)c1` [compound 38], the “isoTOP-ABPP reactivity ratio, Q9HB90_C377” value (RRAGC C377 (Q9HB90); in-vitro_ramos_231) was 1.0, the “isoTOP-ABPP reactivity ratio, Q9NYL2_C22” value (MLTK C22 (Q9NYL2); 500 μm, in-vitro_ramos_231) was 1.2 and the “isoTOP-ABPP ratio Q9BVC5_C10” value ([1]; 200 μM, insitu, 231) was 0.9. The “isoTOP-ABPP ratio P49588_C773” value ([2]; 200 μM, insitu, 231) was 0.7.
In the case of `O=C(CCl)NC(=O)NC12CC3CC(CC(C3)C1)C2` [compound 12], the “isoTOP-ABPP ratio, P50851_C2675” value (LRBA C2675 (P50851); 500 μM, invitro, ramos) is reported as 1.5, the “isoTOP-ABPP ratio Q9BVC5_C10” value ([1]; 200 μM, insitu, 231) is reported as 2.9 and the “isoTOP-ABPP ratio P49588_C773” value ([2]; 200 μM, insitu, 231) is reported as 0.9.
In the case of `O=C(CCl)NC1C(O)OC(CO)C(O)C1O` (mixture of isomers) [compound 44], the “isoTOP-ABPP reactivity profile ratio, Q9HB90_C377” value (RRAGC C377 (Q9HB90); in-vitro_ramos_231) is reported as 0.7 and the “isoTOP-ABPP reactivity profile ratio, Q9NYL2_C22” value (MLTK C22 (Q9NYL2); 500 μm, in-vitro_ramos_231) is reported as 0.8.
In the case of `C=CC(=O)N(Cc1cccnc1)c1cc(C(F)(F)F)cc(C(F)(F)F)c1` [compound 31], the “isoTOP-ABPP reactivity ratio, Q9HB90_C377” value (RRAGC C377 (Q9HB90); in-vitro_ramos_231) is reported as 2.2 and the “isoTOP-ABPP ratio P49588_C773” value ([2]; 200 μM, insitu, ramos) is reported as 1.2.
For `Cn1cc(S(=O)(=O)N2CCOCC2)cc1C(=O)NC(=O)CCl` [compound 11], the “isoTOP-ABPP ratio, Q9HB90_C377” value (RRAGC C377 (Q9HB90); 500 μM, ramos) was 1.6, the “isoTOP-ABPP ratio, P50851_C2675” value (LRBA C2675 (P50851); 500 μM, invitro, ramos) was 1.3 and the “isoTOP-ABPP ratio Q9BVC5_C10” value ([1]; 100 μM in situ 231) was 1.1. The “isoTOP-ABPP ratio P49588_C773” value ([2]; 100 μM in situ 231) was 0.9.
With `O=C(CCl)NCCc1c[nH]c2ccccc12` [compound 13] the “isoTOP-ABPP ratio, Q9HB90_C377” value (RRAGC C377 (Q9HB90); 500 μM, 231) was 2.1, the “isoTOP-ABPP ratio Q9NYL2_C22” value (MLTK C22 (Q9NYL2); 500 μM, invitro, 231) was 5.2 and the “isoTOP-ABPP ratio Q9BVC5_C10” value ([1]; 200 μM, insitu, 231) was 1.6. The “isoTOP-ABPP ratio P49588_C773” value ([2]; 200 μM, insitu, 231) was 0.8 and the “isoTOP-ABPP ratio P49588_C773” value ([2]; 200 μM, insitu, ramos) was 1.1.
In the case of `O=C(CCl)N1CCN(CC(=O)N2CCOCC2)CC1` [compound 29], the “isoTOP-ABPP ratio (reactivity profile), Q9HB90_C377” value (RRAGC C377 (Q9HB90); 500 μm in-vitro ramos_231) is reported as 1.3, the “isoTOP-ABPP ratio (reactivity profile), P50851_C2675” value (LRBA C2675 (P50851); 500 μm in-vitro ramos_231) is reported as 1.1 and the “isoTOP-ABPP ratio (reactivity profile), Q9NYL2_C22” value (MLTK C22 (Q9NYL2); 500 μm in-vitro ramos_231) is reported as 1.2. For the same molecule, the “isoTOP-ABPP ratio Q9BVC5_C10” value ([1]; 200 μM, insitu, ramos) was 1.8 and the “isoTOP-ABPP ratio P49588_C773” value ([2]; 200 μM, insitu, ramos) was 1.1.
With `O=C(CCl)N1CCOCC1` [compound 22] the “isoTOP-ABPP ratio (reactivity profile), Q9HB90_C377” value (RRAGC C377 (Q9HB90); 500 μm in-vitro ramos) was 0.9, the “isoTOP-ABPP ratio (reactivity profile), Q9HB90_C377” value (RRAGC C377 (Q9HB90); 500 μm in-vitro ramos_231) was 1.7 and the “isoTOP-ABPP ratio (reactivity profile), P50851_C2675” value (LRBA C2675 (P50851); 500 μm in-vitro ramos) was 1.1. For the same molecule, the “isoTOP-ABPP ratio (reactivity profile), P50851_C2675” value (LRBA C2675 (P50851); 500 μm in-vitro ramos_231) was 1.1 and the “isoTOP-ABPP ratio (reactivity profile), Q9NYL2_C22” value (MLTK C22 (Q9NYL2); 500 μm in-vitro ramos_231) was 1.0.
`CC(Cl)C(=O)Nc1cc(C(F)(F)F)cc(C(F)(F)F)c1` (centres unmarked) [compound 25] was tested, and the “isoTOP-ABPP ratio (reactivity profile), Q9HB90_C377” value (RRAGC C377 (Q9HB90); 500 μm in-vitro ramos_231) was 1.0 and the “isoTOP-ABPP ratio (reactivity profile), Q9NYL2_C22” value (MLTK C22 (Q9NYL2); 500 μm in-vitro ramos_231) was 0.8.
With `CC(Br)C(=O)Nc1cc(C(F)(F)F)cc(C(F)(F)F)c1` (centres unmarked) [compound 24] the “isoTOP-ABPP ratio (reactivity profile), Q9HB90_C377” value (RRAGC C377 (Q9HB90); 500 μm in-vitro ramos) was 1.5 and the “isoTOP-ABPP ratio (reactivity profile), P50851_C2675” value (LRBA C2675 (P50851); 500 μm in-vitro ramos) was 1.0.
For `O=C(CCl)NC12CC3CC(CC(C3)C1)C2` [compound 21], the “isoTOP-ABPP ratio (reactivity profile), Q9HB90_C377” value (RRAGC C377 (Q9HB90); 500 μm in-vitro ramos_231) was 1.4, the “isoTOP-ABPP ratio (reactivity profile), P50851_C2675” value (LRBA C2675 (P50851); 500 μm in-vitro ramos) was 1.5 and the “isoTOP-ABPP ratio (reactivity profile), P50851_C2675” value (LRBA C2675 (P50851); 500 μm in-vitro ramos_231) was 0.9. For the same molecule, the “isoTOP-ABPP ratio (reactivity profile), Q9NYL2_C22” value (MLTK C22 (Q9NYL2); 500 μm in-vitro ramos_231) was 2.0, the “isoTOP-ABPP ratio Q9BVC5_C10” value ([1]; 200 μM, insitu, 231) was 1.5 and the “isoTOP-ABPP ratio P49588_C773” value ([2]; 200 μM, insitu, 231) was 1.1.
In the case of `O=C(CCl)N1CCC(Cc2ccccc2)CC1` [compound 9], the “isoTOP-ABPP reactivity P49588_C773 AARS” value ([2]; 200 μM, insitu, 231) is reported as 1.5.
With `O=C(CCl)N1CCC(C(O)(c2ccccc2)c2ccccc2)CC1` [compound 20] the “isoTOP-ABPP ratio (reactivity profile), Q9NYL2_C22” value (MLTK C22 (Q9NYL2); 500 μm in-vitro ramos_231) was 20.0.
`CCN(CC)c1ccc(S(N)(=O)=O)cc1NC(=O)CCl` [compound 30] was tested, and the “isoTOP-ABPP ratio (reactivity profile), Q9HB90_C377” value (RRAGC C377 (Q9HB90); 500 μm in-vitro ramos) was 1.4, the “isoTOP-ABPP ratio (reactivity profile), P50851_C2675” value (LRBA C2675 (P50851); 500 μm in-vitro ramos) was 0.9 and the “isoTOP-ABPP ratio (reactivity profile), Q9NYL2_C22” value (MLTK C22 (Q9NYL2); 500 μm in-vitro ramos) was 1.1.
